What all share (format): cell-based, human
The test system of assay [1] is T24 urinary bladder cancer cells. Put plainly: Co-culture in the same visual field, fluorescence of T24 cell region. Conditions: Example 11, T24 cell line, ALA 2 mmol/l, particles 0.001 w/v %. The source says: Co-culture pertaining to the present example for having the tumor cells and the immortalized normal cells exist in the same visual field will be described with reference to FIGS. 1A and 1B. For the co-culture, there was used CytoSelect™ 24-Well Cell Co-Culture System (manufactured by COSMO BIO). The T24 cell line was subcultured in an MEM medium (MEM, GlutaMAX™ supplement (Thermo Fisher Scientific), 10 v/v % FBS (Thermo Fisher Scientific)). The cultured cells which reached a logarithmic growth phase 3 days or 4 days later were peeled off with Trypsin/EDTA (Thermo Fisher Scientific) and, after the reaction was terminated in an MEM medium, centrifuged. The cell pellet obtained was suspended in an MEM medium. The cell suspension was subjected to measurement of cell density and inoculated onto a well at a density of 4.4×10^4 cells/0.225 ml/well, the well having an insert 2 of an 8 mm diameter disposed for preparing a cell-free region therein, and cultured for 2 days to form a monolayer in region 3 around the insert 2.
WI-38 cells were subcultured in an MEM medium. […]
Detection of fluorescence was performed in the same manner as in Example 4 by using an inverted fluorescence microscope (ECLIPSE Ti-E, Nikon). Images having a visual field of 3300 μm (width)×2200 μm (length) were obtained, and relative fluorescence intensities were calculated in the same manner as in Example 5.

The test system is the same in assay [2]. Put plainly: Fluorescence enhancement in T24 cells by simultaneous administration of fluorescent dye (ALA) and particles. As to conditions: Example 8, administration of fluorescent dye only, immediately after observation light irradiation. On the procedure: An aqueous ALA solution (50 mmol/l) was mixed into an MEM medium (MEM, GlutaMAX™ supplement (Thermo Fisher Scientific)) to form a 4 mmol/l ALA solution. Further, an aqueous solution of light scattering particles (2) (ii) was mixed into an MEM medium to form light scattering particle solutions of 0.001, 0.002, and 0.02 w/v %.
Evaluation was performed as follows. The medium of the T24 cells on a 6-well plate, obtained in Example 3, was removed by an aspirator, and thereto was added 2 ml of PBS (−) (Thermo Fisher Scientific). Once again, PBS (−) was removed by an aspirator, thereto was added 2 ml of a mixed solution obtained by mixing 1 ml of the ALA solution and 1 ml of the light scattering particle solution, and the system was cultured under conditions of 3TC and 5 v/v % CO2 for 2 hours. Then, the mixed solution of the cells on the 6-well plate was removed by an aspirator, thereto was added 2 ml of HBSS (−) (Thermo Fisher Scientific) to wash the residue, HBSS (−) was removed again by an aspirator, to the residue was added 2 ml of HBSS (−), and the solution was used for detection.
Detection of fluorescence was performed in the same manner as in Example 4 by using an inverted fluorescence microscope and, from the images acquired, fluorescence intensities were obtained and relative fluorescence intensities were calculated.

The test system of the next assay is DLD-1 colon cancer cells. The assay is described as follows: Fluorescence enhancement in DLD-1 cells by separate administration of fluorescent dye (ALA) and particles, fluorescence microscope. Conditions: Example 6, ALA 2 mmol/l, particles 0.001 w/v %, immediately after observation light irradiation. The method, then:
DLD-1 cells (DLD-1, JCRB9094) were prepared. This cell line was subcultured in an RPMI-1640 medium (RPMI-1640 medium (Life Technologies), 10 v/v % FBS (Life Technologies)). The cultured cells which reached a logarithmic growth phase 3 days or 4 days later were peeled off with Trypsin/EDTA (Thermo Fisher Scientific) and, after the reaction was terminated in an RPMI-1640 medium, centrifuged. The cell pellet obtained was suspended in an RPMI-1640 medium. The cell suspension was subjected to measurement of cell density, inoculated onto a 6-well plate at a density of 2.9×10^5 cells/2 ml/well, and cultured for 1 day.
An aqueous ALA solution (50 mmol/l) was mixed into an RPMI-1640 medium (Life Technologies) to form a 2 mmol/l ALA solution. […]
Evaluation was performed as follows. The medium of the DLD-1 cells on a 6-well plate, obtained in Example 3, was removed by an aspirator, and evaluation thereof was performed under conditions where PBS (−) and HBSS (−) in Example 4 were changed to RPMI-1640 medium and RPMI-1640 medium (no glutamine and no phenol red (Thermo Fisher Scientific), respectively, and the solution was used for detection of fluorescence.
Detection of fluorescence was performed in the same manner as in Example 5 by using an inverted fluorescence microscope and, from the acquired images, fluorescence intensities were obtained and relative fluorescence intensities were calculated.

As to `NCC(=O)CCC(=O)O` [fluorescent dye, 5-aminolevulinic acid], the values for the Relative fluorescence intensity (in assay [1]; in assay [2]; in the assay with DLD-1 colon cancer cells) were 1.6, 1.0 and 1.0, respectively.

Values taken from patent US20190018003A1, “TUMOR DISCRIMINATION METHOD, DIAGNOSTIC AGENT FOR TUMOR, AND SENSITIZER FOR TUMOR DIAGNOSIS” (TOTO LTD., priority 2017, published 2019).
